Where a name gives a salt, the structure may show the parent alone.
Assays:
Type in all cases: in vivo
[1] = acute toxicity (LD50) in adult laboratory rats; conditions: rat, in vivo, po, adult rats, observation period of 14 days
Protocol: (§1) The acute toxicities of the compounds (LD50) were determined in adult laboratory rats from the percentage of animals which died after administration of varying doses within an observation period of 14 days [see J. Pharmacol. exper. Therap. 96, 99 1949)].

[2] = test system: adult laboratory rats; assay: acute toxicity (LD50) in adult laboratory rats; conditions: p.o., rats, printed in parentheses under the LD50 bound; observation period of 14 days
Protocol: as §1

[3] = test system: kaolin-induced edema in the hind paw of rats; assay: antiexudative action against the kaolin-induced edema in the hind paw of rats (Hillebrecht); conditions: Rattus norvegicus, po, dose which produces a 35% reduction in the edematous swelling
Protocol: The antiphlogistic activity of the compounds of the present invention was ascertained by the standard test method Hillebrecht described in Arzneimittelforschung 4, 607-614 (1954), i.e. in terms of the antiexudative action against the kaolin-induced edema in the hind paw of rats. The measurements were carried out by the method of Doepfner and Cerletti, Int. Arch. Allergy and Appl. Immunology 12, 89-97 (1958). The data thus obtained were plotted on a dose-activity graph, and from the resulting curve the dose which produces a 35% reduction in the edematons swelling (ED35) was graphically calculated for each compound.

| SMILES | LD50 at 336 h [1] [mg/kg] | animals died [2] | ED35 [3] [mg/kg] |
| --- | --- | --- | --- |
| O=C(O)CCC(O)c1ccc(-c2ccccc2[N+](=O)[O-])cc1 (centres unmarked) [A, cyclohexylamine salt of 4-(2'-nitro-4-biphenylyl)-4-hydroxy-butyric acid] | > 500 | 0 out of 5 | 30 |
| Nc1ccccc1-c1ccc(C(O)CCC(=O)O)cc1 (centres unmarked) [B, cyclohexylamine salt of 4-(2'-amino-4-biphenylyl)-4-hydroxy-butyric acid] | 1340 | – | 66 |
| O=C(O)CCCc1ccc(-c2ccccc2[N+](=O)[O-])cc1 [C, cyclohexylamine salt of 4-(2'-nitro-4-biphenylyl)-butyric acid] | > 1000 | 3 out of 10 | 66 |
| O=C(O)CCC(O)c1ccc(-c2ccccc2Cl)cc1 (centres unmarked) [Compound E, cyclohexylamine salt of 4-(2'-chloro-4-biphenylyl)-4-hydroxy-butyric acid] | > 1000 | 1 out of 10 | 27 |
| O=C(O)CCCc1ccc(-c2ccccc2F)cc1 [D, cyclohexylamine salt of 4-(2'-fluoro-4-biphenylyl)-butyric acid] | > 500 | 0 out of 10 | 37 |
| O=C(O)CCCc1ccc(-c2ccccc2Cl)cc1 [F, cyclohexylamine salt of 4-(2'-chloro-4-biphenylyl)-butyric acid] | > 1000 | 2 out of 10 | 50 |
| O=C(O)CCCc1ccc(-c2ccc([N+](=O)[O-])cc2)cc1 [G, cyclohexylamine salt of 4-(4'-nitro-4-biphenylyl)-butyric acid] | > 1000 | 0 out of 10 | 30 |

From patent publication US4021479A, “Derivatives of 4-(4-biphenylyl)-butyric acid” (Boehringer Ingelheim GmbH, priority 1971, dated 1977)
